Results from patent publication US20190345478A1, “T[…] AND SYSTEMS FOR DIAGNOSIS AND TREATMENT OF MALARIA” (WILLIAM MARSH RICE UNIVERSITY, priority 2012, published 2019).

System: Plasmodium falciparum (strain 3D7)
Assay: Parasiticidal effect: level of parasitemia (percentage of MIRBCs) after bulk flow treatment of P. falciparum-infected human RBCs
Assay type: cell-based
Conditions: chloroquine 1 μM added immediately prior to flow treatment; PTNB mode 70 ps laser pulse; level of MIRBCs at 24 hours; FIG. 12c

CCN(CC)CCCC(C)Nc1ccnc2cc(Cl)ccc12 (stereo not shown) [chloroquine]
parasiticidal efficacy of PTNB mode compared with chloroquine: three-fold higher parasiticidal efficacy than chloroquine
